From the supplement of paper PMC10883282
± gives the standard deviation of the averaged measurements.

System: A204
Test: relative viability vs DMSO control (72 h) (fraction); higher = more viable cells
Summary of the method: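 A 5 µM positive control and 0.1% DMSO vehicle ran alongside sarcoma cell lines seeded in 384-well plates to reach 80–90% confluence. Serially diluted compound, 2.5 µl from source plates of 10 mM to 0.0002 mM, was added after 24 h, and the plates were held 72 h at 37 °C, 5% CO2. Relative viability was worked out from ATPLite readings as percent growth averaged over up to triplicate wells. The values were rescaled so that 1 is full and 0 is none.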

Row | SMILES | relative viability (0.00017 µM) | relative viability (0.00051 µM) | relative viability (0.00152 µM) | relative viability (0.00457 µM) | relative viability (0.01372 µM) | relative viability (0.04115 µM) | relative viability (0.1235 µM) | relative viability (0.3704 µM) | relative viability (1.111 µM) | relative viability (3.333 µM) | relative viability (10 µM)
1 | CO[C@H]1C[C@@H]2CC[C@@H](C)[C@@](O)(O2)C(=O)C(=O)N2CCCC[C@H]2C(=O)O[C@H]([C@H](C)C[C@@H]2CC[C@@H](OP(C)(C)=O)[C@H](OC)C2)CC(=O)[C@H](C)/C=C(\C)[C@@H](O)[C@@H](OC)C(=O)[C@H](C)C[C@H](C)/C=C/C=C/C=C/1C [Ridaforolimus] | 0.996 ± 0.029 | 0.915 ± 0.019 | 0.783 ± 0.025 | 0.677 ± 0.047 | 0.601 ± 0.07 | 0.582 ± 0.036 | 0.576 ± 0.02 | 0.512 ± 0.042 | 0.532 ± 0.023 | 0.513 ± 0.043 | 0.499 ± 0.0088
2 | O=C(Cc1ccc(-c2ccc(OCCN3CCOCC3)cc2)cn1)NCc1ccccc1 [KX2-391] | 1.09 ± 0.031 | 1.07 ± 0.042 | 1.11 ± 0.04 | 1.05 ± 0.033 | 1.04 ± 0.084 | 0.894 ± 0.072 | 0.458 ± 0.064 | 0.36 ± 0.032 | 0.341 ± 0.014 | 0.31 ± 0.02 | 0.266 ± 0.0096
3 | COc1cc2nccc(Oc3ccc(NC(=O)Nc4cc(C)on4)c(Cl)c3)c2cc1OC [Tivozanib] | 1.1 ± 0.05 | 1.07 ± 0.048 | 1.09 ± 0.032 | 1.08 ± 0.026 | 0.998 ± 0.063 | 0.712 ± 0.021 | 0.504 ± 0.038 | 0.438 ± 0.025 | 0.418 ± 0.029 | 0.348 ± 0.0075 | 0.228 ± 0.02
4 | CCc1cc2c(cc1N1CCC(N3CCOCC3)CC1)C(C)(C)c1[nH]c3cc(C#N)ccc3c1C2=O [Alectinib] | 1.09 ± 0.015 | 1.07 ± 0.028 | 1.09 ± 0.023 | 1.1 ± 0.036 | 1.08 ± 0.012 | 1.09 ± 0.0079 | 1.13 ± 0.021 | 1.13 ± 0.014 | 1.104 ± 0.005 | 1.14 ± 0.036 | 1.14 ± 0.07
5 | COCc1c(-c2cc3cc(C)cc(OC)c3s2)c2c(N)ncnn2c1CN1CCNC(=O)C1 [Rogaratinib] | 1.09 ± 0.039 | 1.07 ± 0.069 | 1.09 ± 0.036 | 1.08 ± 0.019 | 1.05 ± 0.039 | 0.95 ± 0.058 | 0.827 ± 0.048 | 0.631 ± 0.043 | 0.548 ± 0.008 | 0.44 ± 0.014 | 0.268 ± 0.025
6 | CN1CCC(COc2cnc(-c3cccc(Cn4nc(-c5cccc(C#N)c5)ccc4=O)c3)nc2)CC1 [Tepotinib] | 1.11 ± 0.052 | 1.09 ± 0.052 | 1.1 ± 0.044 | 1.09 ± 0.059 | 1.08 ± 0.043 | 1.05 ± 0.012 | 1.09 ± 0.047 | 1.05 ± 0.03 | 1.07 ± 0.083 | 1.06 ± 0.073 | 0.76 ± 0.054
7 | Cc1cnc(Nc2ccc(OCCN3CCCC3)cc2)nc1Nc1cccc(S(=O)(=O)NC(C)(C)C)c1 [Fedratinib] | 1.07 ± 0.066 | 1.07 ± 0.022 | 1.13 ± 0.041 | 1.08 ± 0.035 | 1.09 ± 0.017 | 1.02 ± 0.034 | 0.97 ± 0.035 | 0.712 ± 0.088 | 0.396 ± 0.056 | 0.13 ± 0.016 | 0.0146 ± 0.0016
8 | Cn1cnc2c(F)c(Nc3ccc(Br)cc3F)c(C(=O)NOCCO)cc21 [Binimetinib] | 1.04 ± 0.031 | 1.06 ± 0.029 | 1.063 ± 0.0083 | 1.07 ± 0.019 | 1.04 ± 0.015 | 1.02 ± 0.043 | 1.02 ± 0.023 | 0.9365 ± 0.0019 | 0.922 ± 0.023 | 0.902 ± 0.038 | 0.713 ± 0.023
9 | C[C@@H]1CCN(C(=O)CC#N)C[C@@H]1N(C)c1ncnc2[nH]ccc12 [Tofacitinib] | 1.09 ± 0.031 | 1.09 ± 0.014 | 1.04 ± 0.046 | 1.08 ± 0.023 | 1.06 ± 0.064 | 1.04 ± 0.094 | 1.02 ± 0.052 | 1.06 ± 0.017 | 1.04 ± 0.057 | 1.02 ± 0.014 | 0.99 ± 0.033
10 | Nc1cc(C(F)(F)F)c(-c2cc(N3CCOCC3)nc(N3CCOCC3)n2)cn1 [Buparlisib] | 1.05 ± 0.023 | 1.03 ± 0.021 | 1.05 ± 0.032 | 1.02 ± 0.013 | 1.03 ± 0.065 | 1.01 ± 0.038 | 0.879 ± 0.021 | 0.673 ± 0.011 | 0.332 ± 0.066 | 0.174 ± 0.0058 | 0.155 ± 0.0086
11 | Cn1cc(-c2cc3c(N4CCN(c5ncc([C@@](C)(N)c6ccc(F)cc6)cn5)CC4)ncnn3c2)cn1 [Avapritinib] | 1.02 ± 0.02 | 1.06 ± 0.024 | 1.05 ± 0.023 | 1.05 ± 0.063 | 1.02 ± 0.056 | 0.959 ± 0.061 | 0.77 ± 0.019 | 0.507 ± 0.013 | 0.359 ± 0.024 | 0.282 ± 0.017 | 0.212 ± 0.012
12 | C=CC(=O)N1CCC([C@@H]2CCNc3c(C(N)=O)c(-c4ccc(Oc5ccccc5)cc4)nn32)CC1 [Zanubrutinib] | 1.02 ± 0.029 | 0.991 ± 0.041 | 1 ± 0.046 | 1.02 ± 0.033 | 1.013 ± 0.0088 | 0.969 ± 0.019 | 1.02 ± 0.049 | 0.944 ± 0.084 | 0.897 ± 0.071 | 0.871 ± 0.023 | 0.764 ± 0.03
13 | CCCS(=O)(=O)Nc1ccc(F)c(C(=O)c2c[nH]c3ncc(-c4ccc(Cl)cc4)cc23)c1F [Vemurafenib] | 1.066 ± 0.009 | 1.09 ± 0.011 | 1.07 ± 0.067 | 1.09 ± 0.043 | 1.08 ± 0.047 | 1.07 ± 0.018 | 1.07 ± 0.038 | 1.11 ± 0.025 | 1.12 ± 0.027 | 1.02 ± 0.054 | 0.617 ± 0.029
14 | COc1cc2c(Oc3ccc4[nH]c(C)cc4c3F)ncnc2cc1OCCCN1CCCC1 [Cediranib] | 1.086 ± 0.0095 | 1.06 ± 0.017 | 1.08 ± 0.064 | 1.09 ± 0.024 | 0.984 ± 0.051 | 0.882 ± 0.09 | 0.457 ± 0.0087 | 0.336 ± 0.0094 | 0.251 ± 0.027 | 0.182 ± 0.0051 | 0.00917 ± 0.0011
15 | CC[C@H](Nc1ncnc2[nH]cnc12)c1nc2cccc(F)c2c(=O)n1-c1ccccc1 [Idelalisib] | 1.08 ± 0.023 | 1.1 ± 0.043 | 1.1 ± 0.032 | 1.1 ± 0.046 | 1.07 ± 0.081 | 1.06 ± 0.041 | 1.03 ± 0.023 | 1.02 ± 0.021 | 0.973 ± 0.067 | 0.835 ± 0.015 | 0.61 ± 0.033
16 | Cc1cc(Nc2ncnc3ccc(NC4=NC(C)(C)CO4)cc23)ccc1Oc1ccn2ncnc2c1 [Tucatinib] | 1.092 ± 0.0055 | 1.08 ± 0.021 | 1.08 ± 0.024 | 1.1 ± 0.016 | 1.1 ± 0.012 | 1.08 ± 0.011 | 1.09 ± 0.025 | 1.02 ± 0.052 | 1.02 ± 0.067 | 0.985 ± 0.13 | 0.636 ± 0.034
17 | N#CC[C@H](C1CCCC1)n1cc(-c2ncnc3[nH]ccc23)cn1 [Ruxolitinib] | 1.02 ± 0.015 | 1.03 ± 0.018 | 1.02 ± 0.049 | 1.02 ± 0.027 | 1.01 ± 0.026 | 1.01 ± 0.005 | 1.008 ± 0.0097 | 0.983 ± 0.031 | 0.96 ± 0.083 | 0.789 ± 0.053 | 0.655 ± 0.05
18 | Cc1ccc(F)c(NC(=O)Nc2ccc(-c3cccc4[nH]nc(N)c34)cc2)c1 [Linifanib] | 1.07 ± 0.037 | 1.11 ± 0.047 | 1.08 ± 0.037 | 1.073 ± 0.0063 | 1.06 ± 0.02 | 0.973 ± 0.13 | 0.659 ± 0.03 | 0.469 ± 0.066 | 0.435 ± 0.034 | 0.414 ± 0.032 | 0.439 ± 0.01
19 | Cc1nc(NC(=O)N2CCC[C@H]2C(N)=O)sc1-c1ccnc(C(C)(C)C(F)(F)F)c1 [Alpelisib] | 0.942 ± 0.046 | 0.988 ± 0.037 | 1 ± 0.02 | 1.02 ± 0.06 | 0.983 ± 0.019 | 0.925 ± 0.035 | 0.895 ± 0.038 | 0.7675 ± 0.0064 | 0.651 ± 0.027 | 0.557 ± 0.052 | 0.414 ± 0.03
